From PMC4749642, “Evaluation of anticonvulsant and antinociceptive properties of new N-Mannich bases derived from pyrrolidine-2,5-dione and 3-methylpyrrolidine-2,5-dione” (Naunyn-Schmiedeberg's Archives of Pharmacology, 2015)
Where “and” joins values, the source holds several entries; their conditions need not be identical. Equal values may be shown once. Read-outs that look alike come from different tables or passages of the source. Marks after values point to notes of the source that are not given here.

Tests used:
mice [1] = test: Electroconvulsive threshold test (MEST test); type: in vivo, mouse; conditions: 4 h before the test; for CS50 (mA) (CI): value with 95 % confidence interval
mice [2] = test: Hot plate test; type: in vivo, mouse; conditions: dose 30 mg/kg i.p.
Description: (§1) Male CD-1 mice weighing 18–24 g were used in the in vivo experiment. The animals were kept at room temperature of 20 ± 2 °C under standard conditions (12:12 h light-dark cycle, standard pellet diet, tap water). All the experiments were performed between 8 a.m. and 3 p.m. For the experiments, the animals were selected in a random way and sacrificed by cervical dislocation immediately after the assay. The experimental protocol was approved by the Local Ethics Commission for Animal Experiments of the Jagiellonian University in Cracow, and all experiences were conducted in accordance with the 1996 NIH Guide for the Care and Use of Laboratory Animals.
(§2) The tested compounds 12 (N-[{4-(3,4-dichlorophenyl)-piperazin-1-yl}-methyl]-3-methylpyrrolidine-2,5-dione), 13 (N-[{4-(3-trifluoromethylphenyl)-piperazin-1-yl}-methyl]-3-methylpyrrolidine-2,5-dione), 15 (N-[{4-(3-methylphenyl)-piperazin-1-yl}-methyl]-3-methylpyrrolidine-2,5-dione), 23 (N-[{4-(3,4-dichlorophenyl)-piperazin-1-yl}-methyl]-pyrrolidine-2,5-dione), and 24 (N-[{4-(3-trifluoromethylphenyl)-piperazin-1-yl}-methyl]-pyrrolidine-2,5-dione) were synthesized at the Department of Medicinal Chemistry, Jagiellonian University Medical College in Cracow (Scheme 1). The synthesis of the investigated compounds was described earlier (Rybka et al. [2014]). The investigated compounds were suspended in a 0.5 % aqueous solution of methylcellulose (Loba Chemie, Germany). Lacosamide (Vimpat, UCB Pharma, Belgium), pilocarpine (Sigma-Aldrich, Germany), scopolamine butylbromide (Sigma-Aldrich, Germany), and formaldehyde (POCh, Poland) were dissolved in distilled water. Agents were administered intraperitoneally (i.p.) at a volume of 0.1 ml/10 g. Control animals were administered an equivalent volume of vehicle (0.5 % aqueous solution of methylcellulose) via the same route as the test compounds.
In the hot plate test, the mice were i.p. pretreated either with the test compound or vehicle before placing the animal on the hot plate apparatus (Panlab/Harvard Apparatus, Spain). This apparatus has an electrically heated surface and is supplied with a temperature controller that maintains the temperature at 55–56 °C. The time to the first reaction (licking or jumping) of mice to a nociceptive stimulus was recorded. The cutoff time was established to 60 s to avoid paw tissue damage (Sałat et al. [2014]).

[3] = tested on: L-type calcium channel (dihydropyridine site); test: L-type Ca channel (dihydropyridine site) [3H]nitrendipine binding assay; conditions: rat cerebral cortex
mice [4] = test: Spontaneous locomotor activity (photoresistor actometers); type: in vivo, mouse; conditions: dose 30 mg/kg i.p.; 30-min session
Description: as §1, §2
Locomotor activity was measured with photoresistor actometers (Ugo Basile, Italy) connected to a counter for the recording of light-beam interruptions. Mice were individually placed in plastic cages for 30 min habituation period, and then the number of light-beam crossings was counted for a 30-min session. The cages were cleaned up with 70 % ethanol after each mouse.

V. harveyi BB7XM [5] = test: Vibrio harveyi antimutagenicity assay (vs NQNO), BB7XM strain; type: cell-based; conditions: for Antimutagenicity BB7XM number of revertants Mean ± SD: test compound plus NQNO 40 ng/ml (NQNO line: mutagen only); for Antimutagenicity BB7XM Inhib. (%) of mutagenicity: test compound plus NQNO 40 ng/ml, 25–40 % moderate, 40 % or more strong
Description: (§3) Two V. harveyi strains were used in the experiments: wild-type BB7 and genetically modified BB7XM (the UV-hypersensitive strain bearing plasmid pAB91273), which were described previously by Czyż et al. ([2000]).
(§4) Antimutagenicity assay was performed according to previously described procedures (Czyż et al. [2002]; Pękala et al. [2013]). […] This was calculated as follows: Inhibition (%) = 100 − [(R1/R2) × 100], where R1 is the number of revertants per plate induced by test compound plus mutagen and R2 is the number of revertants in the plate containing only the mutagen (Słoczyńska et al. [2010]). No antimutagenic effect was considered when the inhibition was less than 25 %; a moderate effect for an inhibition value between 25 and 40 % and a strong antimutagenicity were recorded for inhibition higher than 40 % (Gulluce et al. [2010]).

V. harveyi BB7XM [6] = test: Vibrio harveyi mutagenicity assay, BB7XM strain; conditions: 40 ng/ml; for Mutagenicity BB7XM M.I. (mutagenic index): positive assay when M.I. ≥ 2
Description: as §3
(§5) Mutagenicity assay was performed as described previously (Czyż et al. [2000]). All experiments were carried out in triplicate and the results were expressed as mutagenic index (M.I. = the number of revertant colonies induced in the tested sample/the number of spontaneous revertants in the negative control) (Gulluce et al. [2010]).

mice [7] = test: Formalin hind paw test; type: in vivo, mouse; conditions: dose 30 mg/kg i.p.; for antinociceptive effect (reduction of licking response), second (late) phase: 15–30 min after 5 % formalin
Description: as §1, §2
Antinociceptive activity in the formalin hind paw test was examined according to Laughlin et al. ([2002]). Twenty microliters of a 5 % formalin solution was injected intraplantarly (i.pl.) into the right hind paw of the mouse. […] Time (in seconds) spent on licking or biting the injected hind paw in selected intervals, 0–5 and 15–30 min, was measured in each experimental group and was an indicator of nociceptive behavior. In mice, intraplantarly injection of diluted formalin produces a biphasic nocifensive behavioral response (i.e., licking or biting the injected hind paw). The acute nociceptive phase lasts for the first 5 min, whereas the second inflammatory phase occurs between 15 and 30 min after formalin injection.

V. harveyi BB7 [8] = test: Vibrio harveyi mutagenicity assay, BB7 strain; conditions: 40 ng/ml; for Mutagenicity BB7 M.I. (mutagenic index): positive assay when M.I. ≥ 2
Description: as §3, §5

mice [9] = tested on: mice; set-up: method as in Rybka et al. [2014]; conditions: ref Rybka et al. [2014], cited from earlier work; for motor coordination in the rotarod test (in words): up to a dose of 500 mg/kg
mice [10] = conditions: ref Rybka et al. [2014]; cited from earlier work
mice [11] = test: Pilocarpine-induced seizure test; type: in vivo, mouse; conditions: for Latency to status epilepticus (s) ± SEM: 4 h before pilocarpine 400 mg/kg; for Anticonvulsant effect (%) (prolongation of latency time to seizures vs vehicle): 4 h before pilocarpine, 100 mg/kg
Description: as §1, §2
The experimental procedure was originally described by Turski et al. ([1987]). Seizures were induced in mice by i.p. injection of pilocarpine at a dose of 400 mg/kg. Forty-five minutes before pilocarpine, animals were also pretreated with scopolamine butylbromide (1 mg/kg, i.p.) to reduce peripheral autonomic side effects and masticatory and stereotyped movements (Kowalczyk et al. [2014]). Direct observation was performed for 60 min to monitor the latency time to the onset of the limbic seizures, characterized by a subsequent development of behavioral symptoms, such as tremor, head bobbing, and myoclonic movements of the forelimbs progressing to recurrent myoclonic convulsions with rearing, salivation, falling, and status epilepticus (Łuszczki et al. [2008]; Turski [2000]).

V. harveyi BB7 [12] = test: Vibrio harveyi antimutagenicity assay (vs NQNO), BB7 strain; type: cell-based; conditions: for inhibition of NQNO-induced mutagenicity in BB7 strain (in words): NQNO 40 ng/ml; for Antimutagenicity BB7 number of revertants Mean ± SD: test compound plus NQNO 40 ng/ml (NQNO line: mutagen only); for Antimutagenicity BB7 Inhib. (%) of mutagenicity: test compound plus NQNO 40 ng/ml, 25–40 % moderate, 40 % or more strong
Description: as §3, §4

[13] = tested on: L-type calcium channel (dihydropyridine site); set-up: method as in Kamiński et al. [2015b]; conditions: 100 μM; [3H]nitrendipine; rat cerebral cortex; ref Kamiński et al. [2015b]; cited from earlier work

Row | Compound | increase of electroconvulsive threshold (ECT) vs vehicle (mice [1]; dose 10 mg/kg i.p.) | CS50 (mA) (CI) (mice [1]; dose 10 mg/kg i.p.) | increase of electroconvulsive threshold (ECT) vs vehicle (mice [1]; dose 30 mg/kg i.p.) | CS50 (mA) (CI) (mice [1]; dose 30 mg/kg i.p.) | % inhibition of control specific binding ([3]; 10 μM) | % inhibition of control specific binding ([3]; 100 μM) | influence on locomotor activity (number of crossings, in words) (mice [4]) | Antimutagenicity BB7XM number of revertants Mean ± SD (V. harveyi BB7XM [5]) | Antimutagenicity BB7XM Inhib. (%) of mutagenicity (V. harveyi BB7XM [5]) | Mutagenicity BB7XM number of revertants Mean ± SD (V. harveyi BB7XM [6]) | Mutagenicity BB7XM M.I. (mutagenic index) (V. harveyi BB7XM [6]) | antinociceptive effect (reduction of licking response), second (late) phase (mice [7]) | Mutagenicity BB7 number of revertants Mean ± SD (V. harveyi BB7 [8]) | Mutagenicity BB7 M.I. (mutagenic index) (V. harveyi BB7 [8]) | motor coordination in the rotarod test (in words) (mice [9]) | ED50 in the s.c.PTZ test (mice [10]) | Latency to status epilepticus (s) ± SEM (mice [11]; dose 100 mg/kg i.p.) | Anticonvulsant effect (%) (prolongation of latency time to seizures vs vehicle) (mice [11]; dose 100 mg/kg i.p.) | inhibition of NQNO-induced mutagenicity in BB7 strain (in words) (V. harveyi BB7 [12]) | Antimutagenicity BB7 number of revertants Mean ± SD (V. harveyi BB7 [12]) | further results
1 | O=C1CCC(=O)N1CN1CCN(c2ccc(Cl)c(Cl)c2)CC1 [Compound 23, N-[{4-(3,4-dichlorophenyl)-piperazin-1-yl}-methyl]-pyrrolidine-2,5-dione] | 27% | 8.42 (7.55–9.39)** mA | 61% | 10.53 (8.06–13.77)**** mA | 12.3% | 65.9% | significantly reduced the number of crossings | 24 ± 2 | (1) % | 9 ± 3 | 0.7 | 89% | 19 ± 2 | 1.2 | did not impair the motor coordination | 128.8 mg/kg | 669.4 ± 73.04 s | 95% and 95.4% | weakly suppressed | 32 ± 3 | antinociceptive activity in the hot plate test (in words) (mice [2]): did not show activity; effect on nocifensive response, first (neurogenic) phase (in words) (mice [7]; 0–5 min after 5 % formalin): did not attenuate the nocifensive response in this phase in a statistically significant manner; Latency to status epilepticus (s) ± SEM (mice [11]; dose 30 mg/kg i.p.): 465.8 ± 37.61 s; Antimutagenicity BB7 Inhib. (%) of mutagenicity (V. harveyi BB7 [12]): (15) %
2 | CC1CC(=O)N(CN2CCN(c3ccc(Cl)c(Cl)c3)CC2)C1=O (centres unmarked) [Compound 12, N-[{4-(3,4-dichlorophenyl)-piperazin-1-yl}-methyl]-3-methylpyrrolidine-2,5-dione] | 51% | 7.94 (6.57–9.57)*** mA | 118% | 14.27 (8.21–24.80)** mA | 20.2% | 59.4% | did not significantly influence on locomotor activity | 23 ± 5 | (5) % | 14 ± 6 | 1.2 | 74% | 25 ± 4 | 1.5 | did not impair the motor coordination | 134.0 mg/kg | 468.8 ± 39.60 s | 37% and 36.8% | moderate inhibitors | 28 ± 4 | prolongation of latency time to pain reaction vs vehicle (mice [2]): 44%; latency time to pain reaction (mice [2]; mean ± SEM, vehicle 27.51 ± 1.36 s, cutoff 60 s): 39.73 ± 3.20 s; reduction of the duration of the licking response, first (neurogenic) phase (mice [7]; 0–5 min after 5 % formalin): 39%; TD50 in rotarod test (mice [9]; mice): > 500 mg/kg; Antimutagenicity BB7 Inhib. (%) of mutagenicity (V. harveyi BB7 [12]): (26) %
3 | CC1(C)O[C@@H]2[C@@H](CO[C@@]3(COS(N)(=O)=O)OC(C)(C)O[C@@H]23)O1 [Topiramate] | – | – | – | – | – | – | – | – | – | – | – | – | – | – | – | – | – | – | – | – | % inhibition of control specific binding [13]: 7.9%
